Assay results: the supplement of paper PMC10307832

Experiments:
Assay in all cases: relative viability (nuclei count vs DMSO), 5 days (fraction); higher = more cells survive
GSK126 + Alpelisib = compound: CC[C@H](C)N1C=C(C2=C(C=C(C=C21)C3=CN=C(C=C3)N4CCNCC4)C(=O)NCC5=C(C=C(NC5=O)C)C)C [GSK126] + Cc1nc(NC(=O)N2CCC[C@H]2C(N)=O)sc1-c1ccnc(C(C)(C)C(F)(F)F)c1 [Alpelisib] (partner 2 µM)
Summary of the method: (§1)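 Lung cancer cell lines in 1536-well plates got either a single drug or a fixed anchor-drug dose together with five library-drug doses (not always all listed) in √10 steps, by pin tool, on the day after seeding. Nuclei were counted after 5 days, and relative viability is the treated-to-vehicle ratio of nuclei counts. Values are medians of duplicate plates.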

MLN4924 + Trametinib = compound: NS(=O)(=O)OC[C@@H]1C[C@@H](n2ccc3c(N[C@H]4CCc5ccccc54)ncnc32)C[C@@H]1O [MLN4924] + CC(=O)Nc1cccc(-n2c(=O)n(C3CC3)c(=O)c3c(Nc4ccc(I)cc4F)n(C)c(=O)c(C)c32)c1 [Trametinib] (partner 0.02 µM)
Summary of the method: as §1

GSK126 + Navitoclax = compound: CC[C@H](C)N1C=C(C2=C(C=C(C=C21)C3=CN=C(C=C3)N4CCNCC4)C(=O)NCC5=C(C=C(NC5=O)C)C)C [GSK126] + CC1(C)CCC(c2ccc(Cl)cc2)=C(CN2CCN(c3ccc(C(=O)NS(=O)(=O)c4ccc(N[C@H](CCN5CCOCC5)CSc5ccccc5)c(S(=O)(=O)C(F)(F)F)c4)cc3)CC2)C1 [Navitoclax] (partner 0.5 µM)
Summary of the method: as §1

Carboplatin + Foretinib = compound: C1CC(C1)(C(=O)O)C(=O)O.[NH2-].[NH2-].[Pt+2] [Carboplatin] + COc1cc2c(Oc3ccc(NC(=O)C4(C(=O)Nc5ccc(F)cc5)CC4)cc3F)ccnc2cc1OCCCN1CCOCC1 [Foretinib] (partner 0.25 µM)
Summary of the method: as §1

Row | Cell Line | relative viability (GSK126 + Alpelisib; first compound 0.08 µM) | relative viability (GSK126 + Alpelisib; first compound 0.253 µM) | relative viability (GSK126 + Alpelisib; first compound 0.8 µM) | relative viability (GSK126 + Alpelisib; first compound 2.53 µM) | relative viability (GSK126 + Alpelisib; first compound 8 µM) | relative viability (MLN4924 + Trametinib; first compound 0.04 µM) | relative viability (MLN4924 + Trametinib; first compound 0.1265 µM) | relative viability (MLN4924 + Trametinib; first compound 0.4 µM) | relative viability (MLN4924 + Trametinib; first compound 1.265 µM) | relative viability (MLN4924 + Trametinib; first compound 4 µM) | relative viability (GSK126 + Navitoclax; first compound 0.08 µM) | relative viability (GSK126 + Navitoclax; first compound 0.253 µM) | relative viability (GSK126 + Navitoclax; first compound 0.8 µM) | relative viability (GSK126 + Navitoclax; first compound 2.53 µM) | relative viability (GSK126 + Navitoclax; first compound 8 µM) | relative viability (Carboplatin + Foretinib; first compound 0.08 µM) | relative viability (Carboplatin + Foretinib; first compound 0.253 µM) | relative viability (Carboplatin + Foretinib; first compound 0.8 µM) | relative viability (Carboplatin + Foretinib; first compound 2.53 µM) | relative viability (Carboplatin + Foretinib; first compound 8 µM)
1 | HCC-44 | 0.884 | 0.841 | 0.813 | 0.81 | 0.859 | 0.962 | 0.844 | 0.814 | 0.447 | 0.368 | 0.963 | 0.981 | 0.853 | 0.906 | 1.01 |  |  |  |  | 
2 | HCC-78 | 0.413 | 0.304 | 0.287 | 0.301 | 0.372 | 0.798 | 0.509 | 1.13 | 0.268 | 0.243 | 1.01 | 0.711 | 0.832 | 0.741 | 0.804 | 0.616 | 0.555 | 0.54 | 0.526 | 0.545
3 | HCC-366 | 0.452 | 0.342 | 0.381 | 0.546 | 0.409 | 0.369 | 0.376 | 0.514 | 0.305 | 0.0404 | 1.17 | 1.02 | 1.09 | 1.12 | 1.05 | 0.91 | 0.877 | 0.957 | 0.918 | 0.759
4 | HCC-827 | 1.06 | 1 | 1.03 | 0.997 | 0.982 | 0.738 | 0.601 | 0.526 | 0.193 | 0.156 | 1.07 | 1.03 | 0.987 | 0.967 | 0.95 | 1.05 | 1.03 | 1.01 | 0.995 | 0.912
5 | HOP-62 | 0.998 | 1.14 | 0.974 | 0.727 | 0.917 | 0.432 | 0.567 | 0.369 | 0.103 | 0.0823 | 1.01 | 1.06 | 1.06 | 0.916 | 0.979 | 0.984 | 1 | 1.07 | 1.04 | 0.994
6 | IA-LM | 0.893 | 0.927 | 0.784 | 0.724 | 0.664 |  |  |  |  |  | 0.702 | 0.691 | 0.758 | 0.761 | 0.947 | 1.25 | 1.06 | 1.21 | 1.19 | 1
7 | LC-2-ad | 0.927 | 0.967 | 0.773 | 0.793 | 0.9 | 0.95 | 0.827 | 0.701 | 0.541 | 0.305 | 0.468 | 0.383 | 0.506 | 0.477 | 0.484 | 1.03 | 1.04 | 0.994 | 0.874 | 0.679
8 | LCLC-97TM1 | 0.254 |  | 0.22 | 0.374 | 0.217 | 0.208 | 0.214 | 0.157 | 0.0691 | 0.0607 | 0.587 |  | 0.379 | 0.525 | 0.798 | 1 | 0.956 | 0.892 | 0.868 | 0.765
9 | LCLC-103H | 0.953 | 1.02 | 0.927 | 0.992 | 1.03 | 0.697 | 0.651 | 0.513 | 0.331 | 0.307 |  |  |  |  |  | 0.752 | 0.83 | 0.806 | 0.703 | 0.632
10 | NCI-H358 | 1.08 | 1.07 | 0.857 | 0.935 | 0.904 | 0.167 | 0.137 | 0.138 | 0.115 | 0.0882 |  |  |  |  |  | 0.736 | 0.783 | 0.721 | 0.764 | 0.651
11 | NCI-H522 |  |  |  |  |  | 0.638 | 0.696 | 0.691 | 0.314 | 0.386 |  |  |  |  |  |  |  |  |  | 
12 | NCI-H650 | 1.24 | 1.11 | 1.17 | 1.23 | 0.993 | 0.894 | 0.76 | 0.574 | 0.201 | 0.176 |  |  |  |  |  | 1.01 | 1.14 | 0.941 | 0.91 | 0.614
13 | NCI-H661 | 0.802 | 0.638 | 0.657 | 0.478 | 0.58 | 0.714 | 0.712 | 0.475 | 0.277 | 0.353 |  |  |  |  |  | 1.01 | 0.982 | 0.984 | 1 | 0.842
14 | NCI-H1299 | 1.12 | 1 | 1.01 | 0.994 | 1.18 |  |  |  |  |  | 1.05 | 1.07 | 1.01 | 1.03 | 1.02 | 1.13 | 1.09 | 1.04 | 1.05 | 0.996
15 | NCI-H1563 | 1.02 | 0.988 | 1.02 | 0.807 | 0.828 |  |  |  |  |  |  |  |  |  |  | 0.931 | 0.954 | 0.92 | 0.929 | 0.888
16 | NCI-H1623 |  |  |  |  |  |  |  |  |  |  |  |  |  |  |  | 0.959 | 0.919 | 0.884 | 0.747 | 0.725
17 | NCI-H1648 |  |  |  |  |  | 0.481 | 0.353 | 0.332 | 0.314 | 0.306 |  |  |  |  |  |  |  |  |  | 
18 | NCI-H1650 |  |  |  |  |  | 0.597 | 0.32 | 0.232 | 0.131 | 0.156 | 1.33 | 1.19 | 1.1 | 1.12 | 1.06 | 1.51 | 1.25 | 0.986 | 0.982 | 0.779
19 | NCI-H1703 | 0.364 | 0.343 | 0.36 | 0.417 | 0.482 |  |  |  |  |  | 1.49 | 0.942 | 1.02 | 0.898 | 0.748 | 0.446 | 0.397 | 0.34 | 0.403 | 0.37
20 | NCI-H1792 | 0.703 | 0.77 | 0.78 | 0.761 | 0.636 | 0.376 | 0.441 | 0.566 | 0.433 | 0.238 | 0.733 | 0.644 | 0.655 | 0.664 | 0.658 |  |  |  |  | 
21 | NCI-H2342 |  |  |  |  |  | 0.834 | 0.757 | 0.759 | 0.727 | 0.54 |  |  |  |  |  | 0.949 | 0.961 | 0.993 | 0.865 | 0.785
22 | SW 900 |  |  |  |  |  |  | 0.764 | 0.449 | 0.291 | 0.218 |  |  |  |  |  | 1.08 | 0.789 | 0.677 | 0.769 | 0.682
